The record followed here is patent US8569343B2, “Oligomer-opioid agonist conjugates” (Nektar Therapeutics, priority 2007, dated 2013).

As a reminder, the EC50 is the midpoint of the concentration-response curve. Higher therefore signals weaker potency.

Chain of recombinant human delta opioid receptor (P41143 whole entry): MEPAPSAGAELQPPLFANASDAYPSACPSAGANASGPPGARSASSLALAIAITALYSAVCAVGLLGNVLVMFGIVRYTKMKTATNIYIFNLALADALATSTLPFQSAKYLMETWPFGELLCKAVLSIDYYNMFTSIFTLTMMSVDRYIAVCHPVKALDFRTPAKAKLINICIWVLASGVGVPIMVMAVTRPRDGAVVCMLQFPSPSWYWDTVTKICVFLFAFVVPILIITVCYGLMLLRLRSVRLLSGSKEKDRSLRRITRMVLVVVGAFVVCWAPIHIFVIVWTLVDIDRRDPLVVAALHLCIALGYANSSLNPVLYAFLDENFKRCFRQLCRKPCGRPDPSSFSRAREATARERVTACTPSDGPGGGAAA

The target of the first assay is T1, cloned human kappa opioid receptor (Homo sapiens, UniProt P41145).
T1 construct: expressed in transfected cells; host or cells: CHO cells
T1 sequence (P41145 whole entry): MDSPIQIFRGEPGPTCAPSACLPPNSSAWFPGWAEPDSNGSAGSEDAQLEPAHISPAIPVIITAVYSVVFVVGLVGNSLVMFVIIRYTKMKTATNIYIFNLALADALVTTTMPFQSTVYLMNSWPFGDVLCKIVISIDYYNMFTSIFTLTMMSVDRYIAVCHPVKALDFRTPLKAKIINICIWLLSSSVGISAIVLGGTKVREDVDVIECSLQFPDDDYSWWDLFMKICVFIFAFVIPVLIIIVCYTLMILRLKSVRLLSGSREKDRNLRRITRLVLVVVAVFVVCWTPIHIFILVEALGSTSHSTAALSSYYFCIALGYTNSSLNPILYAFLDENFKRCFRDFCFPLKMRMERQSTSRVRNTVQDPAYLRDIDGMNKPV
Put plainly: cell-based.
Conditions: not given
As for the experimental part: The efficacy of the various PEG-opioid conjugates was measured by their ability to inhibit cAMP formation following receptor activation. Studies were conducted in CHO cells heterologously expressing the cloned human mu, kappa or delta opioid receptors. cAMP was measured using a cAMP HiRange homogenous time-resolved fluorescence assay (HTRF Assay), that is based on a competitive immunoassay principle (Cisbio, Cat. #62AM6PEC).
Briefly, suspensions of cells expressing either the mu, kappa or delta opioid receptors were prepared in buffer containing 0.5 mM isobutyl-methyl xanthine (IBMX). […] EC50 values were calculated for each compound from a sigmoidal dose-response plot of concentrations versus maximum response. To determine if the compounds behaved as full or partial agonists in the system, the maximal response at the highest tested concentrations of compounds were compared to that produced by a known full agonist.
`COCCOCCOCCOCCO[C@H]1CC[C@@]2(O)[C@H]3Cc4ccc(OC)c5c4[C@@]2(CCN3C)[C@H]1O5` [α-6-mPEG4-O-Hydroxycodone, α-6-mPEG4-O-hydroxycodone] came in with a half-maximal effective concentration (EC50) above 500 µM.

Consider `COc1ccc2c3c1O[C@H]1C(O)CC[C@@]4(O)[C@@H](C2)N(C)CC[C@]314` (stereo partly drawn) [Hydroxycodone, α-6-hydroxycodone, reference compound], for which the EC50 is above 500 µM.

On to α-6-mPEG5-O-codeine, for which the concentration giving a half-maximal response (EC50) is above 500 µM. Turning to α-6-mPEG6-O-codeine, the EC50 is above 500 µM.

As for α-6-mPEG1-O-codeine, the EC50 is above 500 µM. α-6-mPEG4-O-codeine came in with an EC50 above 500 µM.

Staying with this assay, now noted: inhibition of cAMP formation; 3 μM forskolin; tested upto 500 μM.
Consider `COCCO[C@H]1CC[C@@]2(O)[C@H]3Cc4ccc(OC)c5c4[C@@]2(CCN3C)[C@H]1O5` [α-6-mPEG1-O-Hydroxycodone, α-6-mPEG1-O-hydroxycodone], for which the EC50 is above 500 µM.

`COCCOCCOCCOCCOCCOCCOCCO[C@H]1CC[C@@]2(O)[C@H]3Cc4ccc(OC)c5c4[C@@]2(CCN3C)[C@H]1O5` [α-6-mPEG7-O-Hydroxycodone, α-6-mPEG7-O-hydroxycodone] had a half-maximal effective concentration (EC50) above 500 µM. As to `COCCOCCOCCOCCOCCO[C@H]1CC[C@@]2(O)[C@H]3Cc4ccc(OC)c5c4[C@@]2(CCN3C)[C@H]1O5` [α-6-mPEG5-O-Hydroxycodone, α-6-mPEG5-O-hydroxycodone], the concentration for a half-maximal effect (EC50) is above 500 µM. `COCCOCCO[C@H]1CC[C@@]2(O)[C@H]3Cc4ccc(OC)c5c4[C@@]2(CCN3C)[C@H]1O5` [α-6-mPEG2-O-Hydroxycodone, α-6-mPEG2-O-hydroxycodone] came in with an EC50 above 500 µM. On to `COCCOCCOCCOCCOCCOCCOCCOCCOCCO[C@H]1CC[C@@]2(O)[C@H]3Cc4ccc(OC)c5c4[C@@]2(CCN3C)[C@H]1O5` [α-6-mPEG9-O-Hydroxycodone, α-6-mPEG9-O-hydroxycodone], for which the 50% effective concentration (EC50) is above 500 µM. Same read-out and setting: for `COCCOCCOCCOCCOCCOCCO[C@H]1CC[C@@]2(O)[C@H]3Cc4ccc(OC)c5c4[C@@]2(CCN3C)[C@H]1O5` [α-6-mPEG6-O-Hydroxycodone, α-6-mPEG6-O-hydroxycodone] the value was above 500 µM; for `COCCOCCOCCO[C@H]1CC[C@@]2(O)[C@H]3Cc4ccc(OC)c5c4[C@@]2(CCN3C)[C@H]1O5` [α-6-mPEG3-O-Hydroxycodone, α-6-mPEG3-O-hydroxycodone], above 500 µM.

A further assay has as its target recombinant human delta opioid receptor (Homo sapiens, UniProt P41143).
Assay: not given
The following applies: GTP-γS binding, screened up to 10 μM in agonist and antagonist mode.
`COCCOCCOCCO[C@H]1CC[C@@]2(O)[C@H]3Cc4ccc(O)c5c4[C@@]2(CCN3CC2CCC2)C1O5` (some centres unmarked) [6-O-mPEG3-Nalbuphine, 6-O-mPEG3-nalbuphine]: the “effect at the delta opioid receptor” value was “no effect”.
